Values quoted from earlier work, collected in article PMC13029847, “Decoding the Liver–Blood Partitioning of Neonicotinoid Insecticides: Evidence from Paired Human Liver and Blood Biomonitoring” (Toxics, 2026).
Converted amounts (≈) assume the structure as drawn.

Conditions: ref PubChem Open Chemistry Database

CCN(Cc1ccc(Cl)nc1)/C(=C/[N+](=O)[O-])NC [NIT, nitenpyram]
Solubility: 840 mg/mL (≈ 3100 mM)

CN1COCN(Cc2cnc(Cl)s2)/C1=N\[N+](=O)[O-] [THIA, thiamethoxam]
Solubility: 4.1 mg/mL (≈ 14.1 mM)
